Measurements published in patent US20030129684A1, “Method for detecting fungicides” (priority 2000, published 2003).

Assays:
Rhodotorula rubra [1] = experiment: Bioautographic detection of various fungicides on TLC plate, staining with optical brightener, evaluation at 366 nm; type: cell-based; design: key to Zone of inhibition 2 ppb / Zone of inhibition 500 ppt / Zone of inhibition 100 ppt: −: no zone of inhibition; +: small zone of inhibition; ++: clearly visible zone of inhibition; settings: for Zone of inhibition 2 ppb / Zone of inhibition 100 ppt / Zone of inhibition 500 ppt: optical brightener, 366 nm, 20 hours incubation
Procedure: The evaluation is carried out by staining with optical brightener (0.04% of Blankophor® BA 267% from Bayer AG, Germany, in 0.1 mol/l NaOH solution). To this end, the TLC plate is dried, wetted with the stain solution and subsequently stored for 5 minutes at room temperature. The evaluation is carried out at 366 nm. The zones of inhibition are evident as dark spots against a fluorescent background.

Rhodotorula rubra [2] = settings: fluorescence extinction at 254 nm; result in words
Procedure: 200 ml of deionised water, 10 g of Sabouraud 2% glucose broth and 0.11 g of Gelrite® are boiled until sterile. The test organism is then added in the form of a lyophilisate or living culture and pre-incubated for 3 hours at 35° C.
The developed TLC plate is dipped briefly into the fungal suspension, and excess suspension is removed from the base of the plate. The TLC plate is subsequently incubated for 20 hours at room temperature in a can lined with moist paper.
The evaluation is carried out by fluorescence extinction at 254 nm.

For CC(Cc1ccc(C(C)(C)C)cc1)CN1C[C@@H](C)O[C@@H](C)C1 (some centres unmarked) [A1, fenpropimorph], the “Zone of inhibition 2 ppb” value (Rhodotorula rubra [1]) was “++”, the “Zone of inhibition 100 ppt” value (Rhodotorula rubra [1]) was “−” and the “Zone of inhibition 500 ppt” value (Rhodotorula rubra [1]) was “−”. The Detection limit (Rhodotorula rubra [1]; also printed as 2 μg/kg) was 2 ppb (2 μg/kg).
In the case of CCC[CH2][Sn]([Cl])([CH2]CCC)[CH2]CCC [F2, Tributyltin Chloride], the “zone of inhibition on the starting line (Rf=0)” value (Rhodotorula rubra [2]) is reported as “evident”.
For C[Si](Cn1cncn1)(c1ccc(F)cc1)c1ccc(F)cc1 [A2, flusilazole], the “Zone of inhibition 2 ppb” value (Rhodotorula rubra [1]) was “++”, the “Zone of inhibition 100 ppt” value (Rhodotorula rubra [1]) was “−” and the “Zone of inhibition 500 ppt” value (Rhodotorula rubra [1]) was “+”. The Detection limit (Rhodotorula rubra [1]; also printed as 500 ng/kg) was 500 ppt (500 ng/kg).
In the case of CCCC1COC(Cn2cncn2)(c2ccc(Cl)cc2Cl)O1 (centres unmarked) [A3, propiconazole], the “Zone of inhibition 2 ppb” value (Rhodotorula rubra [1]) is reported as “++”, the “Zone of inhibition 100 ppt” value (Rhodotorula rubra [1]) is reported as “−” and the “Zone of inhibition 500 ppt” value (Rhodotorula rubra [1]) is reported as “+”. For the same molecule, the Detection limit (Rhodotorula rubra [1]; also printed as 500 ng/kg) was 500 ppt (500 ng/kg).
With CCC[CH2][Sn]([Cl])([CH2]CCC)[CH2]CCC [F1, Tributyltin Chloride] the “zone of inhibition with Rf about 1.0” value (Rhodotorula rubra [2]) was “evident”.
